Converted amounts (≈) assume the structure as drawn.
Legend:
M17-TAU P301L cells [1] = experiment: TAU-induced toxicity: LDH leakage of retinoic acid incubated M17-TAU P301L cells; assay type: cell-based, human; conditions: for EC50: Homo sapiens, reduction of LDH activity of retinoic acid incubated M17-TAU P301L cells, read-out: EC50 (μg/ml) TAU-induced toxicity
From the text: A TAU expression plasmid was constructed by sub-cloning the cDNA of human TAU-P301L (encoding for TAU with proline 301 substituted by a leucine residue) into mammalian expression vector pcDNA3.1 resulting in plasmid pcDNA3.1-TAU P301L. Plasmids pcDNA3.1 and pcDNA3.1-TAU P301L were transfected to human neuroblastoma cells ([…]; ATCC No. CRL-2267) and independent clonal lines with the plasmids stably integrated into the genome were selected. […] Expression of the TAU P301L genes in the cell lines was confirmed by Western analysis.
In degenerated or dead cells lactate dehydrogenase (LDH) leaks out of the cells into the extracellular environment due to a loss of plasma-membrane integrity. This principle was used to determine cytotoxicity by quantifying the level of leaked LDH into the growth medium relative to the sum of total LDH activity from living cells and dead cells.
The detailed method for determining cytotoxicity was as follows: From appropriate precultures of M17-3.1 and M17-TAU(P301L) cells were seeded at 2500 cells/cm2 in Optimem Reduced Serum without phenol red (Gibco, Cat. 31985-047) supplemented with 1% fetal calf serum, 1 mM sodium pyruvate, 1× non-essential amino acids, 500 μg/ml G418 0.5× antibiotic/antimycotic. After 3 hours of incubation at 37° C./5% CO2 1 volume of Optimem Reduced Serum (same as described above; except without fetal calf serum) supplemented with 2.5 μM all-trans retinoic acid (ATRA) was added. The cells were further incubated for 7 days. Subsequently, LDH activity was determined using Promega Cytotox 96 Non-Radioactive cytotoxicity assay, (Cat. G1780) according the supplier's instructions.
The M17-TAU P301L cell line made it possible to assess the ability of novel compounds to counteract TAU cytotoxicity. […] These measurements were used to calculate EC50 values.
Exemplary compounds of the present invention are shown in Table 1, with their chemical structure and their EC50 value (expressed in μg/ml) as determined from example 12 in the TAU-induced toxicity experiment.

M17-TAU P301L cells [2] = experiment: Cytosolic calcium (Fura-2) in M17-TAU P301L cell model of calcium dyshomeostasis; assay type: cell-based; conditions: Homo sapiens, Fura-2 340/380 nm ratio, read-out: EC50 value of lowering cytosolic Ca^2+
Method: Cystosic calcium was measured by loading the cells with a medium containing Fura-2 AM (Sigma-Aldrich), a cell permeable fluorescent probe for Ca^2+. Fura-2-AM was dissolved in DMSO plus 20% Pluronic Acid (F-127) (Invitrogen) in a 1:1 ratio and diluted in medium to a final concentration of 0.5 μM. To this loading medium probenecid (Sigma-Aldrich) was added to a final concentration of 2.5 mM. Then, culture medium was replaced by loading medium and after incubation for 1 hour at 37° C. cells were washed twice and replaced with HBSS (Gibco) supplemented with 0.2% FBS and 0.02M HEPES. Next, changes in cytosolic calcium were measured using a FlexStation 3 microplate reader (Molecular Devices) and quantified ratiometric, by calculating changes in the amount of cytosolic Ca^2+ bound Fura-2 (fluorescence intensity at 340 nm) relative to the amount of Ca^2+ unbound Fura-2 (fluorescence intensity at 380 nm). Data was processed in SoftMax Pro 5.4.6 software (Molecular Devices).
In addition compounds were tested to lower the elevated cytosolic calcium levels. In the presence of the compounds these cytosolic calcium levels were decreased.
Compounds were tested to lower the elevated cytosolic Ca^2+ levels in the cell model of calcium dyshomeostasis (FIG. 1B) as described in example 10.
Exemplary compounds of the present invention are shown in Table 2, with their chemical structure and their EC50 value of lowering cytosolic Ca^2+ (expressed in μg/ml).

[3] = tested on: primary rat hippocampal neurons; experiment: Ex-vivo inhibition of oligomeric amyloid beta (ADDL) toxicity in primary neurons; assay type: cell-based; conditions: 100 ng/mL, 1000 nM ADDL, 24 h, FIG. 4
Method: An exemplary compound of this invention was tested for its ability to inhibit toxicity elicited by oligomeric amyloid beta (Aβo). Neurons from rat embryos were harvested and cultured using standard methods (such as used in Schlager et al., 2014. Cell reports, 8(5), pp. 1248-56.). Differentiated neurons were challenged with Apo and viability was quantified.
At day in-vitro 19 days after isolation primary hippocampal neurons were transfected with Marcks-GFP in order to visualize the neurons with fluorescence microscopy.
ADDL (Abeta-derived diffusible ligands) preparation (representing Aβo) was done according to Klein (Klein, 2002. Neurochemistry international, 41(5), pp. 345-52.). Abeta 1-42 was purchased from AnaSpec Inc. and dissolved in HFIP to homogenize the peptide. HFIP was then evaporated in a speedvac and Abeta film was dried at −20° C. overnight over desiccant. Abeta film was then resolubilised in 100% DMSO and further diluted (1/25) in Ham's F12 medium. […]
The solution was centrifuged at 14.000×g for 10 min at 4° C. and supernatants were transferred to fresh tubes and protein concentration determined by NanoDrop®.
At day in-vitro 21 primary rat hippocampal neurons were treated with equal volume of Blank/ADDL solution amounting to 0 and 1000 nM ADDL. […] Viability was assessed using the Live-Dead assay from Thermo Fisher Catalog number: L3224. […]

VGCC = experiment: Ex-vivo inhibition of VGCC activity: KCl-induced Ca2+ influx in primary neurons (Fura2); assay type: cell-based; conditions: 1.5 μm compound, 45 mM KCl, primary neurons from mouse embryos, FIG. 5, p<0.0001
Method: Compound 6 was tested for its ability to inhibit VGCC activity in primary neurons. Neurons from mouse embryos were harvested and cultured using standard methods (such as used in Schlager et al., 2014. Cell reports, 8(5), pp. 1248-56). To stimulate VGCC activity, neurons were depolarized using 45 mM KCl and incubated with vehicle or compound at a concentration of 1.5 μm. Calcium influx was measured using fluorescent cytosolic Ca^2+ detection reagent Fura2.
Changes in cytosolic Ca^2+ concentrations were measured after loading the cells with Fura-2 AM (Sigma-Aldrich), a cell permeable fluorescent probe for Ca^2+. Briefly, Fura-2-AM was dissolved in DMSO plus 20% Pluronic Acid (F-127) (Invitrogen) in a 1:1 ratio and diluted in medium to a final concentration of 0.5 μM. […] Next, changes in cytosolic calcium were measured using a FlexStation 3 microplate reader (Molecular Devices) and quantified ratiometric, by calculating changes in the amount of cytosolic Ca^2+ bound Fura-2 (fluorescence intensity at 340 nm) relative to the amount of Ca^2+ unbound Fura-2 (fluorescence intensity at 380 nm). […]
Compounds were tested at […] for their ability to inhibit Ca^2+ influx in primary neurons (FIG. 5) as described in Example 14. […] The percentage (%) inhibition of Ca^2+ influx relative to vehicle treated neurons was calculated.

TAU phosphorylation = experiment: In vivo inhibition of TAU phosphorylation in brain of APP*PS1 mice (Western analysis); conditions: 20 mg/kg subcutaneously daily for 2 weeks, 5 month old APP*PS1 mice, versus vehicle, FIG. 6
From the text: FIG. 6 represents graphs plotting quantifications of pathologically phosphorylated TAU species determined by Western blots of brain extracts from transgenic APP mice treated with vehicle or with exemplary Compound 6. The graphs depict the mean normalized TAU signals±SEM. ** indicate p<0.01 relative to vehicle treated animals. The TAU signals were obtained by using antibodies directed against: • (A) AT8 p-TAU, indicates the antibody recognising p-TAU phosphorylated on serine 202 and threonine 205 • (B) AD2 p-TAU, indicates the antibody recognising p-TAU phosphorylated on serines 396 and 404 • (C) phosphorylated TAU on T231 • (D) phosphorylated TAU on S262.
Transgenic human 5 month old APP*PS1 mice (The Journal of Neuroscience, Sep. 1, 2000, 20(17):6452-6458) were treated daily subcutaneously with 20 mg/kg Compound 6 for 2 weeks.
At the end of the treatment period, mice were sacrificed and the corresponding brains were used for biochemical analysis.

[4] = tested on: Transgenic human APP mice; experiment: Morris Water Maze cognition test in transgenic APP mice; assay type: in vivo; conditions: 20 mg/kg subcutaneously daily for 8 weeks, versus vehicle
Method: P-value refers to the treatment of transgenic APP mice with exemplary Compound 6 versus vehicle.
Transgenic human of 4 months of age APP mice (THE JOURNAL OF BIOLOGICAL […] Vol. 274, No. 10, Issue of March 5, pp. 6483-6492, 1999) were treated subcutaneously, daily for 8 weeks with Compound 6 at 20 mg/kg. Cognition was assessed using the Morris Water Maze test. […] After the learning phase a probe test was conducted in which the platform was removed from the water bath to evaluate the spatial memory of the location of the platform.
Both indices indicate that compound treated mice have improved cognitive performance almost identical to wild type controls compared to vehicle treated mice.

CA1 pyramidal neurons = experiment: Neuronal firing rate in brain slices from tgAPP mice (patch clamp, CA1); assay type: cell-based, mouse; conditions: 2 μM, 1 hr perfusion, higher stimuli, FIG. 8
Method: Brain slices from wild type and tgAPP mice were incubated with DMSO or Compound 6. Neurons were stimulated with increasing currents and the frequency of action potentials (firing rate) was measured.
In tgAPP mice the frequency of action potentials at higher stimuli was higher.
Acute sagittal brain slices from WT or hAPP mice were prepared by decapitation of the mice after isoflurane anaesthesia. Brains were removed quickly and immersed during 3-4 min in ice-cold freshly prepared cutting artificial cerebrospinal fluid (cutting aCSF) containing (in mM) 214 sucrose, 2.5 KCl, 2 CaCl2, 2 MgSO4, 1.25 NaH2PO2, 26 NaHCO3 and 10 glucose and oxygenated with 95% O2/5% CO2. Sagittal 350 μm slices were generated using a vibratome (VT 1000S; Leica Microsystems) and were incubated in standard carboxygenated aCSF (in mM: 125 NaCl, 2.5 KCl, 2 CaCl2, 2 MgSO4, 1.25 NaH2PO2, 26 NaHCO3 and 10 glucose, osmolarity 305 mOsm) at 34° C. during 20 min. The incubation continued at room temperature (RT) for another hour before each slice was transferred to a submerged recording chamber and perfused continuously with carboxygenated aCSF. […]
Dendritic firing rate of CA1 cells was recorded in response to hyperpolarizing and depolarizing steps (−0.4 to +0.45 nA, steps of 0.05 nA) after a 1 hr perfusion with vehicle or compound at 2 μM. […]

mouse brain slices = experiment: Afterhyperpolarization of single action potentials in mouse brain slices; assay type: cell-based; conditions: versus vehicle, FIG. 9, p<0.05
Method: FIG. 9 represents a graph plotting the afterhyperpolarization (AHP) amplitude of single action potentials by somatic current clamp recordings using mouse brain slices incubated with vehicle or Compound 6. * indicates p<0.05.
Somatic or dendritic (>200 μm from the soma) current-clamp recordings were performed at RT (24 to 28° C.) and slices were continuously perfused with carboxygenated standard aCSF, supplemented with control or test article REM0043039 at 2 μM. For whole-cell recordings, patch pipettes were filled with a solution containing (in mM) 140 K-gluconate, 5 NaCl, 2 MgCl2, 10 HEPES, 0.5 EGTA, 2 MgATP, 0.4 NaGTP, osmolarity 305, pH adjusted to 7.25 with KOH. The soma or dendrite of large CA1 pyramidal neurons were identified and patch-clamped after visual approach of the recording pipette using a combination of infrared light and differential interference contrast (DIC) optics. […] Recordings were terminated when the series resistances exceeded 40 MO. Signals were digitized and low-pass filtered at 10 kHz. The signal was amplified with an Axopatch 200B amplifier, digitized by a Digidata 155 interface and sampled with Clampex 10 (Molecular Devices, CA). […]
Action potentials (AP) after electrical stimulation of mouse brain slices were analysed (FIG. 9). […]

SMILES	EC50 (M17-TAU P301L cells [1]) [µg/mL]	EC50 (M17-TAU P301L cells [2]) [ng/mL]	other results
O=C(NCCc1c[nH]c2ccc(F)cc12)c1cc(Cc2ccc(F)cc2F)on1 [Compound 1]	0.002 (≈ 5.01 nM)	1	–
O=C(NCCc1c[nH]c2ccc(F)cc12)c1cc(Cc2ccc(F)c(F)c2)on1 [Compound 2]	0.002 (≈ 5.01 nM)	1.4	–
O=C(NCCc1c[nH]c2ccc(F)cc12)c1cc(Cc2cc(F)cc(F)c2)on1 [Compound 3]	0.0021 (≈ 5.26 nM)	2.4	–
O=C(NCCc1c[nH]c2ccc(F)cc12)c1cc(Cc2ccc(F)cc2)on1 [Compound 4]	0.0022 (≈ 5.77 nM)	3.5	–
O=C(NCCc1c[nH]c2ccc(F)cc12)c1cc(Cc2cccc(F)c2F)on1 [Compound 5]	0.0028 (≈ 7.01 nM)	7.1	–
O=C(NCCc1c[nH]c2ccc(F)cc12)c1cc(Cc2cc(F)ccc2F)on1 [Compound 6]	0.0034 (≈ 8.51 nM)	2.4	neuronal viability after Aβo challenge [3]: strongly rescued; Ca^2+ influx upon KCl depolarization (VGCC): significantly reduced; TAU phosphorylation in brain extracts (TAU phosphorylation): more effectively reduced TAU phosphorylation; search path during training phase of Morris Water Maze ([4]; FIG. 7A): reduced search path; annulus crossing index score in probe test ([4]; FIG. 7B): higher annulus crossing index score; frequency of action potentials (firing rate) (CA1 pyramidal neurons): significantly lowered the frequency towards wild type level; afterhyperpolarization (AHP) amplitude of action potentials (mouse brain slices): increased
O=C(NCCc1c[nH]c2ccc(F)cc12)c1cc(Cc2ccccc2F)on1 [Compound 7]	0.0043 (≈ 11.3 nM)	4.7	–
COC(=O)C1=C(C)NC(C)=C(C(=O)OC(C)C)C1c1cccc2nonc12 (stereo not shown) [isradepine, reference compound]	–	–	toxicity (LDH leaked into the medium) of RA-incubated cells (M17-TAU P301L cells [1]; FIG. 2, M17-TAU P301L cells with RA): toxicity is reduced

From patent US11939324B2, “Compounds for the treatment of epilepsy, neurodegenerative disorders and other CNS disorders” (reMYND N.V., priority 2017, dated 2024)
